From ChEMBL document CHEMBL5257085, “Siderophores: Chemical tools for precise antibiotic delivery” (Bioorg Med Chem Lett, 2023)
≈ marks a conversion by molar mass, not a printed value.

Legend:
[1] = system: Pseudomonas aeruginosa; test: Antibacterial activity against Pseudomonas aeruginosa assessed as inhibition of bacterial growth incubated for 18 to 48 hrs by two-fold serial dilution method; assay type: functional; details: time 18-48 hrs
[2] = biological target: DNA gyrase (Escherichia coli, UniProt P0AES4+P0AES6); test: Inhibition of Escherichia coli DNA gyrase ATPase activity using pBR322 as substrate incubated for 10 mins in presence of NADH and ATP by supercoiling assay; assay type: protein-complex assay
[3] = system: Escherichia coli; test: Antibacterial activity against Escherichia coli JW5503 harbouring tolC-knock out mutant assessed as inhibition of bacterial growth incubated for 24 hrs by CLSI protocol based broth microdilution method; assay type: functional
[4] = system: Acinetobacter baumannii; test: Potentiation of imipenem-induced antibacterial activity against OXA-235 producing Acinetobacter baumannii ATCC 17978 assessed as fold change in imipenem MIC; assay type: functional
[5] = system: Acinetobacter baumannii; test: Potentiation of imipenem-induced antibacterial activity against OXA-143 producing Acinetobacter baumannii ATCC 17978 assessed as fold change in imipenem MIC; assay type: functional
[6] = system: Acinetobacter baumannii; test: Potentiation of imipenem-induced antibacterial activity against OXA-58 producing Acinetobacter baumannii ATCC 17978 assessed as fold change in imipenem MIC; assay type: functional
[7] = system: Acinetobacter baumannii; test: Potentiation of imipenem-induced antibacterial activity against OXA-24 producing Acinetobacter baumannii ATCC 17978 assessed as fold change in imipenem MIC; assay type: functional
[8] = system: Acinetobacter baumannii; test: Potentiation of imipenem-induced antibacterial activity against OXA-23 producing Acinetobacter baumannii ATCC 17978 assessed as fold change in imipenem MIC; assay type: functional
[9] = system: Pseudomonas aeruginosa; test: Antibacterial activity against IMP-1 producing Pseudomonas aeruginosa assessed as inhibition of bacterial growth by CLSI protocol based broth microdilution method; assay type: functional
[10] = system: Pseudomonas aeruginosa; test: Antibacterial activity against VIM-2 producing Pseudomonas aeruginosa assessed as inhibition of bacterial growth by CLSI protocol based broth microdilution method; assay type: functional
[11] = system: Klebsiella pneumoniae; test: Antibacterial activity against NDM-1 producing Klebsiella pneumoniae assessed as inhibition of bacterial growth by CLSI protocol based broth microdilution method; assay type: functional
[12] = system: Klebsiella pneumoniae; test: Antibacterial activity against KPC-2 producing Klebsiella pneumoniae assessed as inhibition of bacterial growth by CLSI protocol based broth microdilution method; assay type: functional
[13] = system: Klebsiella pneumoniae; test: Antibacterial activity against KPC-3 producing Klebsiella pneumoniae assessed as inhibition of bacterial growth by CLSI protocol based broth microdilution method; assay type: functional
[14] = system: Escherichia coli; test: Antibacterial activity against NDM-1 producing Escherichia coli assessed as inhibition of bacterial growth by CLSI protocol based broth microdilution method; assay type: functional
[15] = system: Acinetobacter baumannii; test: Antibacterial activity against OXA-23 producing Acinetobacter baumannii assessed as inhibition of bacterial growth by CLSI protocol based broth microdilution method; assay type: functional
[16] = system: Stenotrophomonas maltophilia; test: Antibacterial activity against L1 producing Stenotrophomonas maltophilia assessed as inhibition of bacterial growth by CLSI protocol based broth microdilution method; assay type: functional

CC(=O)NC[C@H]1CN(c2ccc(N3CCN(C(=O)Cn4cc(COC(=O)NCCCCNC(=O)c5cccc(O)c5O)nn4)CC3)c(F)c2)C(=O)O1
MIC [1]: 128 µM (≈ 92.9 µg/mL)

Cc1[nH]c(C(=O)N[C@H]2CCc3nc(NC(=O)CNC(=O)c4ccc(O)c(O)c4)sc3C2)c(Cl)c1Cl
IC50 [2]: 58 nM
MIC [3]: 14 µg/mL (≈ 26 µM)

CC(=O)NC[C@H]1CN(c2ccc(N3CCOCC3)c(F)c2)C(=O)O1 [LINEZOLID]
MIC [1]: > 1020 µM

C[C@]1(COC(=O)Cc2ccc(O)c(O)c2)[C@H](C(=O)O)N2C(=O)/C(=C/c3ccccn3)[C@H]2S1(=O)=O
fold change (FC) [4]: 32
fold change (FC) [5]: 32
fold change (FC) [6]: 32
fold change (FC) [7]: 32
fold change (FC) [8]: 32

CC(C)(O/N=C(\C(=O)N[C@@H]1C(=O)N2C(C(=O)[O-])=C(C[N+]3(CCNC(=O)c4ccc(O)c(O)c4Cl)CCCC3)CS[C@H]12)c1csc(N)n1)C(=O)O [CEFIDEROCOL]
MIC50 [9]: 0.12 µg/mL (≈ 0.16 µM)
MIC50 [10]: 0.12 µg/mL (≈ 0.16 µM)
MIC50 [11]: 0.12 µg/mL (≈ 0.16 µM)
MIC50 [12]: 0.12 µg/mL (≈ 0.16 µM)
MIC50 [13]: 0.12 µg/mL (≈ 0.16 µM)
MIC50 [14]: 0.12 µg/mL (≈ 0.16 µM)
MIC50 [15]: 0.12 µg/mL (≈ 0.16 µM)
MIC50 [16]: 0.12 µg/mL (≈ 0.16 µM)
